Source: US8455475B2 (Gruenenthal GmbH, priority 2009, dated 2013)

target: T1, rat B1R (bradykinin receptor 1) (Rattus norvegicus, UniProt P97583); assay: FLIPR Ca2+ assay (Fluo-4) on CHO K1 cells stably transfected with the B1R gene of the rat (rB1R cells): % inhibition at 10 μM / IC50, agonist Des-Arg9-bradykinin; assay type: cell-based; conditions: CHO-K1, rat B1R
T1 construct: expressed in transfected cells; host or cells: CHO K1 cells
T1 sequence (P97583 1-337): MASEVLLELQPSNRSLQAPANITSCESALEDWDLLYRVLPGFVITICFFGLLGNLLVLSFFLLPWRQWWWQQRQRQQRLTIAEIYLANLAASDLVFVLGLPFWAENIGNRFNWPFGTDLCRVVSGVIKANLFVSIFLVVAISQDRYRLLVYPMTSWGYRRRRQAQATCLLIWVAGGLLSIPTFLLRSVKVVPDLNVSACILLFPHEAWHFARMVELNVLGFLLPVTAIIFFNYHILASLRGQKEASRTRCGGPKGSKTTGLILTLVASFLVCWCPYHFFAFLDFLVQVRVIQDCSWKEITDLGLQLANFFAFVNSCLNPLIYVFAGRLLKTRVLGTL
Procedure, shortened: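 Antagonism is measured as the drop in peak Fluo-4 Ca2+ signal when the EC80 agonist follows 10–20 min compound exposure. The single-point screen uses 10 μM; IC50 uses several concentrations. Values are given as % of maximal achievable inhibition.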

inhibition at 10 µM | Structure (SMILES)
51% | O=C(Nc1ccc(Cl)cc1C(F)(F)F)N1CCC2(CC1)CCN(C(=O)c1ccc3c(c1)C(N(C(=O)c1ccccc1Cl)C1CC1)CC3)C2 (stereo not shown) [IND_CC-714, 2-[3-[(2-Chloro-benzoyl)-cyclopropyl-amino]-2,3-dihydro-1H-indene-5-carbonyl]-N-[4-chloro-2-(trifluoromethyl)-phenyl]-2,8-diazaspiro[4.5]decane-8-carboxylic acid amide]
79% | N#Cc1cccc(NC(=O)N2CCC3(CC2)CCN(C(=O)c2ccc4c(c2)C(N(C(=O)c2ccccc2Cl)C2CC2)CC4)C3)c1 (stereo not shown) [IND_CC-715, 2-[3-[(2-Chloro-benzoyl)-cyclopropyl-amino]-2,3-dihydro-1H-indene-5-carbonyl]-N-(3-cyano-phenyl)-2,8-diazaspiro[4.5]decane-8-carboxylic acid amide]
80% | O=C(NCc1ccccc1)N1CCC2(CC1)CCN(C(=O)c1ccc3c(c1)C(N(C(=O)c1ccccc1Cl)C1CC1)CC3)C2 (stereo not shown) [IND_CC-716, N-Benzyl-2-[3-[(2-chloro-benzoyl)-cyclopropyl-amino]-2,3-dihydro-1H-indene-5-carbonyl]-2,8-diazaspiro[4.5]decane-8-carboxylic acid amide]
72% | O=C(NC1CCCCC1)N1CCC2(CC1)CCN(C(=O)c1ccc3c(c1)C(N(C(=O)c1ccccc1Cl)C1CC1)CC3)C2 (stereo not shown) [IND_CC-717, 2-[3-[(2-Chloro-benzoyl)-cyclopropyl-amino]-2,3-dihydro-1H-indene-5-carbonyl]-N-cyclohexyl-2,8-diazaspiro[4.5]decane-8-carboxylic acid amide]
52% | O=C(Nc1c(Cl)cccc1Cl)N1CCC2(CC1)CCN(C(=O)c1ccc3c(c1)C(N(C(=O)c1ccccc1Cl)C1CC1)CC3)C2 (stereo not shown) [IND_CC-718, 2-[3-[(2-Chloro-benzoyl)-cyclopropyl-amino]-2,3-dihydro-1H-indene-5-carbonyl]-N-(2,6-dichloro-phenyl)-2,8-diazaspiro[4.5]decane-8-carboxylic acid amide]
59% | O=C(Nc1ccc(F)cc1F)N1CCC2(CC1)CCN(C(=O)c1ccc3c(c1)C(N(C(=O)c1ccccc1Cl)C1CC1)CC3)C2 (stereo not shown) [IND_CC-719, 2-[3-[(2-Chloro-benzoyl)-cyclopropyl-amino]-2,3-dihydro-1H-indene-5-carbonyl]-N-(2,4-difluoro-phenyl)-2,8-diazaspiro[4.5]decane-8-carboxylic acid amide]
80% | O=C(Nc1cc(F)cc(F)c1)N1CCC2(CC1)CCN(C(=O)c1ccc3c(c1)C(N(C(=O)c1ccccc1Cl)C1CC1)CC3)C2 (stereo not shown) [IND_CC-720, 2-[3-[(2-Chloro-benzoyl)-cyclopropyl-amino]-2,3-dihydro-1H-indene-5-carbonyl]-N-(3,5-difluoro-phenyl)-2,8-diazaspiro[4.5]decane-8-carboxylic acid amide]
70% | O=C(NCc1ccc(Cl)c(Cl)c1)N1CCC2(CC1)CCN(C(=O)c1ccc3c(c1)C(N(C(=O)c1ccccc1Cl)C1CC1)CC3)C2 (stereo not shown) [IND_CC-721, 2-[3-[(2-Chloro-benzoyl)-cyclopropyl-amino]-2,3-dihydro-1H-indene-5-carbonyl]-N-[(3,4-dichlorophenyl)-methyl]-2,8-diazaspiro[4.5]decane-8-carboxylic acid amide]
81% | Cc1c(CN2CCC3(CC2)CCN(C(=O)c2ccc4c(c2)C(NC(=O)c2cccc(Cl)c2Cl)CC4)C3)cnn1C (stereo not shown) [IND_CC-722, 2,3-Dichloro-N-[6-[8-[(1,5-dimethyl-1H-pyrazol-4-yl)-methyl]-2,8-diazaspiro[4.5]decane-2-carbonyl]-2,3-dihydro-1H-inden-1-yl]-benzamide]
55% | Cc1noc(C)c1CN1CCC2(CC1)CCN(C(=O)c1ccc3c(c1)C(NC(=O)c1cccc(Cl)c1Cl)CC3)C2 (stereo not shown) [IND_CC-723, 2,3-Dichloro-N-[6-[8-[(3,5-dimethyl-isoxazol-4-yl)-methyl]-2,8-diazaspiro[4.5]decane-2-carbonyl]-2,3-dihydro-1H-inden-1-yl]-benzamide]
86% | N#Cc1ccccc1CN1CCC2(CC1)CCN(C(=O)c1ccc3c(c1)C(NC(=O)c1cccc(Cl)c1Cl)CC3)C2 (stereo not shown) [IND_CC-724, 2,3-Dichloro-N-[6-[8-[(2-cyano-phenyl)-methyl]-2,8-diazaspiro[4.5]decane-2-carbonyl]-2,3-dihydro-1H-inden-1-yl]-benzamide]
56% | O=C(NC1CCc2ccc(C(=O)N3CCC4(CCN(Cc5c(F)cccc5Cl)CC4)C3)cc21)c1cccc(Cl)c1Cl (stereo not shown) [IND_CC-725, 2,3-Dichloro-N-[6-[8-[(2-chloro-6-fluoro-phenyl)-methyl]-2,8-diazaspiro[4.5]decane-2-carbonyl]-2,3-dihydro-1H-inden-1-yl]-benzamide]
67% | O=C(NC1CCc2ccc(C(=O)N3CCC4(CCN(Cc5ccc(F)cc5Cl)CC4)CC3)cc21)c1cccc(Cl)c1Cl (stereo not shown) [IND_CC-726, 2,3-Dichloro-N-[6-[9-[(2-chloro-4-fluoro-phenyl)-methyl]-3,9-diazaspiro[5.5]undecane-3-carbonyl]-2,3-dihydro-1H-inden-1-yl]-benzamide]
74% | O=C(NC1CCc2ccc(C(=O)N3CCC4(CCN(Cc5c(F)cccc5Cl)CC4)CC3)cc21)c1cccc(Cl)c1Cl (stereo not shown) [IND_CC-727, 2,3-Dichloro-N-[6-[9-[(2-chloro-6-fluoro-phenyl)-methyl]-3,9-diazaspiro[5.5]undecane-3-carbonyl]-2,3-dihydro-1H-inden-1-yl]-benzamide]
58% | Cc1nc(CN2CCC3(CC2)CCN(C(=O)c2ccc4c(c2)C(NC(=O)c2c(C)cccc2Cl)CC4)C3)c[nH]1 (stereo not shown) [IND_CC-728, 2-Chloro-6-methyl-N-[6-[8-[(2-methyl-1H-imidazol-4-yl)-methyl]-2,8-diazaspiro[4.5]decane-2-carbonyl]-2,3-dihydro-1H-inden-1-yl]-benzamide]
76% | Cc1cccc(Cl)c1C(=O)NC1CCc2ccc(C(=O)N3CCC4(CCN(Cc5cnn(C)c5C)CC4)C3)cc21 (stereo not shown) [IND_CC-729, 2-Chloro-N-[6-[8-[(1,5-dimethyl-1H-pyrazol-4-yl)-methyl]-2,8-diazaspiro-[4.5]decane-2-carbonyl]-2,3-dihydro-1H-inden-1-yl]-6-methyl-benzamide]
75% | Cc1cccc(Cl)c1C(=O)NC1CCc2ccc(C(=O)N3CCC4(CCN(Cc5c(C)noc5C)CC4)C3)cc21 (stereo not shown) [IND_CC-730, 2-Chloro-N-[6-[8-[(3,5-dimethyl-isoxazol-4-yl)-methyl]-2,8-diazaspiro-[4.5]decane-2-carbonyl]-2,3-dihydro-1H-inden-1-yl]-6-methyl-benzamide]
83% | Cc1cccc(Cl)c1C(=O)NC1CCc2ccc(C(=O)N3CCC4(CCN(Cc5ccc(C#N)cc5)CC4)C3)cc21 (stereo not shown) [IND_CC-731, 2-Chloro-N-[6-[8-[(4-cyano-phenyl)-methyl]-2,8-diazaspiro[4.5]decane-2-carbonyl]-2,3-dihydro-1H-inden-1-yl]-6-methyl-benzamide]
100% | Cc1cccc(Cl)c1C(=O)NC1CCc2ccc(C(=O)N3CCC4(CCN(Cc5cccc(C#N)c5)CC4)C3)cc21 (stereo not shown) [IND_CC-732, 2-Chloro-N-[6-[8-[(3-cyano-phenyl)-methyl]-2,8-diazaspiro[4.5]decane-2-carbonyl]-2,3-dihydro-1H-inden-1-yl]-6-methyl-benzamide]
83% | Cc1cccc(Cl)c1C(=O)NC1CCc2ccc(C(=O)N3CCC4(CCN(Cc5ccccc5C#N)CC4)C3)cc21 (stereo not shown) [IND_CC-733, 2-Chloro-N-[6-[8-[(2-cyano-phenyl)-methyl]-2,8-diazaspiro[4.5]decane-2-carbonyl]-2,3-dihydro-1H-inden-1-yl]-6-methyl-benzamide]
95% | Cc1cccc(Cl)c1C(=O)NC1CCc2ccc(C(=O)N3CCC4(CCN(Cc5ccc(F)cc5Cl)CC4)C3)cc21 (stereo not shown) [IND_CC-734, 2-Chloro-N-[6-[8-[(2-chloro-4-fluoro-phenyl)-methyl]-2,8-diazaspiro-[4.5]decane-2-carbonyl]-2,3-dihydro-1H-inden-1-yl]-6-methyl-benzamide]
81% | Cc1cccc(Cl)c1C(=O)NC1CCc2ccc(C(=O)N3CCC4(CCN(Cc5c(F)cccc5Cl)CC4)C3)cc21 (stereo not shown) [IND_CC-735, 2-Chloro-N-[6-[8-[(2-chloro-6-fluoro-phenyl)-methyl]-2,8-diazaspiro-[4.5]decane-2-carbonyl]-2,3-dihydro-1H-inden-1-yl]-6-methyl-benzamide]
93% | Cc1nc(CN2CCC3(CC2)CCN(C(=O)c2ccc4c(c2)C(NC(=O)c2c(F)cccc2Cl)CC4)C3)c[nH]1 (stereo not shown) [IND_CC-736, 2-Chloro-6-fluoro-N-[6-[8-[(2-methyl-1H-imidazol-4-yl)-methyl]-2,8-diazaspiro[4.5]decane-2-carbonyl]-2,3-dihydro-1H-inden-1-yl]-benzamide]
55% | Cc1c(CN2CCC3(CC2)CCN(C(=O)c2ccc4c(c2)C(NC(=O)c2c(F)cccc2Cl)CC4)C3)cnn1C (stereo not shown) [IND_CC-737, 2-Chloro-N-[6-[8-[(1,5-dimethyl-1H-pyrazol-4-yl)-methyl]-2,8-diazaspiro-[4.5]decane-2-carbonyl]-2,3-dihydro-1H-inden-1-yl]-6-fluoro-benzamide]
89% | Cc1noc(C)c1CN1CCC2(CC1)CCN(C(=O)c1ccc3c(c1)C(NC(=O)c1c(F)cccc1Cl)CC3)C2 (stereo not shown) [IND_CC-738, 2-Chloro-N-[6-[8-[(3,5-dimethyl-isoxazol-4-yl)-methyl]-2,8-diazaspiro-[4.5]decane-2-carbonyl]-2,3-dihydro-1H-inden-1-yl]-6-fluoro-benzamide]
